Measurements from publication PMC9539280 (Advanced Science, 2022).

Experiments:
[1] = test system: hCMs
[2] = test system: hCMs; assay: Spontaneous calcium transient measurement (Fluo-4) in hCMs; conditions: spontaneous, 6 days
[3] = escalating concentrations (lopinavir: high dosage only)

Structure (SMILES)	spontaneous calcium transients [1]	calcium transient amplitude ([2]; escalating concentrations (1-20 μM))	time to 50% decay of the calcium transients [2, 3]	time to peak of the calcium transients [2, 3]
Cc1cccc(/C=N/Nc2cc(N3CCOCC3)nc(OCCc3ccccn3)n2)c1 [Apilimod, apilimod]	no calcium transients were observed	–	–	–
CCC(CC)COC(=O)[C@H](C)N[P@](=O)(OC[C@H]1O[C@@](C#N)(c2ccc3c(N)ncnn23)[C@H](O)[C@@H]1O)Oc1ccccc1 [Remdesivir, remdesivir]	–	tended to decrease	significantly increased	significantly increased
